Results on two substances are retold here after PMC4317013 (The Journal of Biological Chemistry, 2014).

The subject of one data set is Jurkat T cells. Nature of the data set: Internalization of FITC-labeled peptides by Jurkat T cells, FACS. Conditions: 5 μM, 1 h, 37 °C, full medium with 10% FBS, washed, fixed with 4% paraformaldehyde, FACSCalibur, compared with untreated cells, Fig. 5A. On the procedure: For the internalization experiment, cells were seeded at 1 × 10^6 cells/ml with 8 ml of full medium into 75-cm^2 flasks and treated with respective 200 nM proteins for 2 h or 5 μM peptides for 1 h.
Human A+-helix peptide ([…]; corresponding to the cleaved N-terminal peptide of hPCI), mouse A+-helix peptide ([…]; corresponding to the cleaved N-terminal peptide of mPCI), and TAT peptide ([…]) ([42]) were synthesized and labeled with FITC (GenScript, Piscataway, NJ). […] Fluorescence-activated cell sorting (FACS) analysis was performed with a FACSCalibur flow cytometer (BD Biosciences). Further data analysis was done with Flowing Software ([43]). For confocal microscopy, the fixed cells were suspended with Vectashield mounting medium containing […] DAPI (Vector Laboratories, Burlingame, CA) and transferred onto slides. Confocal images were taken by a Zeiss LSM-510 Meta confocal microscope system (Zeiss, Jena, Germany). Zeiss LSM Image Browser software was applied for further analysis of images.

The subject of a further data set is testisin. The data set can be described thus: 30 nM testisin in testisin buffer (50 mM Tris, 150 mM NaCl, 10 mM CaCl2, pH 7.5). Conditions: 37 °C, up to 120 min.
A short description of data set [1]: media from untreated U937 cells (RMPI 1640 medium). Conditions: 37 °C, up to 4 h.
Another data set deals with urokinase. Nature of the data set: 30 nM urokinase. Conditions: 37 °C, up to 120 min.
In a further data set the test system is enteropeptidase. Nature of the data set: 30 nM enteropeptidase. To be noted: 37 °C, up to 120 min.

As to Fluorescein Isothiocyanate [free FITC], in the data set with Jurkat T cells, the “cellular fluorescence signal (FACS)” value is “small shift”.
Take RRHSHSKKKKAKESSVGAVGPPSSKDFA...: in the data set with testisin, the cleaved bond result is on record as “Ala18-Val19”. Moreover, the not cleaved entry was “did not affect the molecular weight of mPCI upon incubation for 1 and 4 h” in data set [1]; “still recognized by anti-penta-His IgG after 2-h incubation” with urokinase; “still recognized by anti-penta-His IgG after 2-h incubation” in the data set with enteropeptidase.
